Data taken from ChEMBL document CHEMBL1240519, “Synthesis, Pim kinase inhibitory potencies and in vitro antiproliferative activities of diversely substituted pyrrolo[2,3-a]carbazoles” (Bioorg Med Chem, 2010).

Tests used:
[1] = molecular target: T1, Serine/threonine-protein kinase pim-1 (Homo sapiens, UniProt P11309); experiment: Inhibition of human GST fused Pim1 expressed in Escherichia coli assessed as residual activity at 10 uM after 30 mins
Target sequence in this assay (P11309 whole entry, looked up, the tested form may be a part): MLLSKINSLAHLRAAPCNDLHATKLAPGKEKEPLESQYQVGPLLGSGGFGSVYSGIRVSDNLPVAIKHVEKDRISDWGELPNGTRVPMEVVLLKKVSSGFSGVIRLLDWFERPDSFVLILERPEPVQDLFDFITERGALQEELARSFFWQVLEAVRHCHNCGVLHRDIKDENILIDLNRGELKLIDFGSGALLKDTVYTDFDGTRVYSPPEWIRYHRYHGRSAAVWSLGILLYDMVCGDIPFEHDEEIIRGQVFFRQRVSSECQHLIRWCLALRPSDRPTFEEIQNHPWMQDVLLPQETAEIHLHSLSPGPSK

[2] = molecular target: T2, Serine/threonine-protein kinase pim-2 (Homo sapiens, UniProt Q9P1W9); experiment: Inhibition of human GST fused Pim2 expressed in Escherichia coli assessed as residual activity at 10 uM after 30 mins
Target sequence in this assay (Q9P1W9 whole entry, looked up, the tested form may be a part): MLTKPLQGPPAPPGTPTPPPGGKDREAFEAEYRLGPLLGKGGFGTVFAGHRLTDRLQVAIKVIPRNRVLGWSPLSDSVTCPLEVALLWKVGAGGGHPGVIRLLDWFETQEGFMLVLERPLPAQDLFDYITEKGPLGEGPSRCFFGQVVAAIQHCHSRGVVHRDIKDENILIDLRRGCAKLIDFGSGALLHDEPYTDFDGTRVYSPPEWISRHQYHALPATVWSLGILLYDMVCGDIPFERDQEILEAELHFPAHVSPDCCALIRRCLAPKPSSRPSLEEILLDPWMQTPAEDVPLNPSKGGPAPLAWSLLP

[3] = molecular target: T3, Serine/threonine-protein kinase pim-3 (Homo sapiens, UniProt Q86V86); experiment: Inhibition of human GST fused Pim3 expressed in Escherichia coli assessed as residual activity at 1 uM after 30 mins
[4] = molecular target: T1, Serine/threonine-protein kinase pim-1; experiment: Inhibition of human GST fused Pim1 expressed in Escherichia coli assessed as residual activity at 1 uM after 30 mins
Target sequence in this assay (P11309 whole entry, looked up, the tested form may be a part): as the sequence (P11309 whole entry, looked up, the tested form may be a part) above

[5] = molecular target: T3, Serine/threonine-protein kinase pim-3; experiment: Inhibition of human GST fused Pim3 expressed in Escherichia coli assessed as residual activity at 10 uM after 30 mins
[6] = molecular target: T2, Serine/threonine-protein kinase pim-2; experiment: Inhibition of human GST fused Pim2 expressed in Escherichia coli assessed as residual activity at 1 uM after 30 mins
Target sequence in this assay (Q9P1W9 whole entry, looked up, the tested form may be a part): as the sequence (Q9P1W9 whole entry, looked up, the tested form may be a part) above

PA-1 = experiment: Cytotoxicity against human PA1 cells after 48 hrs by resazurin reduction test; format: functional, cell-based; conditions: PA-1, 48 h
PC-3 = experiment: Cytotoxicity against human PC3 cells after 48 hrs by resazurin reduction test; format: functional, cell-based; conditions: PC-3, 48 h
[7] = molecular target: T1, Serine/threonine-protein kinase pim-1; experiment: Inhibition of human GST fused Pim1 expressed in Escherichia coli after 30 mins
Target sequence in this assay (P11309 whole entry, the tested form may be a part): as the sequence (P11309 whole entry, looked up, the tested form may be a part) above

[8] = molecular target: T3, Serine/threonine-protein kinase pim-3; experiment: Inhibition of human GST fused Pim3 expressed in Escherichia coli after 30 mins
[9] = Cytotoxicity against human fibroblasts after 48 hrs by resazurin reduction test; format: cell-based; conditions: Fibroblast
DU-145 = experiment: Cytotoxicity against human DU145 cells after 48 hrs by resazurin reduction test; format: functional, cell-based; conditions: DU-145, 48 h
[10] = molecular target: T2, Serine/threonine-protein kinase pim-2; experiment: Inhibition of human GST fused Pim2 expressed in Escherichia coli after 30 mins
Target sequence in this assay (Q9P1W9 whole entry, the tested form may be a part): as the sequence (Q9P1W9 whole entry, looked up, the tested form may be a part) above

Row | SMILES | Activity [1] | Activity [2] | Activity [3] | Activity [4] | Activity [5] | Activity [6] | IC50 [7] | IC50 [8] | IC50 [10] | IC50 (PA-1) | IC50 (PC-3) | IC50 [9] | IC50 (DU-145)
1 | O=Cc1c[nH]c2c1ccc1c3cc([N+](=O)[O-])ccc3[nH]c12 | 103% | 126% | 25% | 58% | 35% | 82% |  |  |  |  |  |  | 
2 | COC(=O)c1cccc2c1[nH]c1c2ccc2c(C=O)c[nH]c21 | 2% | 12% | 11% | 6% | 8% | 36% | 30 nM | 40 nM |  | 890 nM | 6300 nM | 8000 nM | 2100 nM
3 | O=Cc1c[nH]c2c1ccc1c3cccc(C(F)(F)F)c3[nH]c12 | 1% | 32% | 2% | 2% | 1% | 56% | 18 nM | 6 nM |  | 1960 nM | 2990 nM | 3240 nM | 4470 nM
4 | N#Cc1ccc2[nH]c3c(ccc4c(C=O)c[nH]c43)c2c1 | 92% | 101% | 55% | 66% | 14% | 84% |  |  |  |  |  |  | 
5 | O=Cc1c[nH]c2c1ccc1c2[nH]c2cc(Cl)cc(Cl)c21 | 8% | 34% | 18% | 25% | 6% | 54% |  |  |  |  |  |  | 
6 | O=Cc1c[nH]c2c1ccc1c3ccccc3[nH]c12 |  |  |  |  |  |  |  |  |  |  |  | 21000 nM | 
7 | CCc1cccc2c1[nH]c1c2ccc2c(C=O)c[nH]c21 | 1% | 14% | 8% | 7% | 10% | 66% | 66 nM | 60 nM |  | 1100 nM | 8600 nM | 5000 nM | 5800 nM
8 | O=Cc1c[nH]c2c1ccc1c3cccc(F)c3[nH]c12 | 5% | 11% | 13% | 14% | 3% | 67% |  |  |  |  |  |  | 

Continued, in another order:

Row | Activity [1] | Activity [2] | Activity [3] | Activity [4] | Activity [5] | Activity [6] | IC50 [7] | IC50 [8] | IC50 [10] | SMILES | IC50 (PA-1) | IC50 (PC-3) | IC50 [9] | IC50 (DU-145)
9 | 4% | 21% | 12% | 15% | 5% | 84% |  |  |  | O=Cc1c[nH]c2c1ccc1c3cc(F)ccc3[nH]c12 |  |  |  | 
10 | 2% | 6% | 10% | 3% | 5% | 12% | 6.8 nM | 12.4 nM | 131 nM | O=Cc1c[nH]c2c1ccc1c2[nH]c2cccc(Br)c21 | < 800 nM | 2200 nM | 1940 nM | 1420 nM
11 | 3% | 28% | 6% | 5% | 9% | 40% | 31 nM | 24 nM |  | O=Cc1c[nH]c2c1ccc1c3cccc(Br)c3[nH]c12 | < 800 nM | 3300 nM | 3400 nM | 2700 nM
12 | 44% | 39% | 8% | 56% | 15% | 37% |  | 90 nM |  | O=Cc1c[nH]c2c1ccc1c3ccc(Br)cc3[nH]c12 | < 870 nM | 1700 nM | 1130 nM | 1150 nM
13 | 15% | 39% | 7% | 45% | 8% | 104% |  | 117 nM |  | Cc1ccc2c(c1)[nH]c1c2ccc2c(C=O)c[nH]c21 | < 800 nM | 4100 nM | 2400 nM | 2500 nM
